Test results: ChEMBL document CHEMBL1201862, “PubChem BioAssay data set” (2004)
Calls of active or inactive are those of the source.

Columns and labels:
[1] = biological target: Beta-galactosidase (Escherichia coli, UniProt Q8VNN2); assay: Dose response counterscreen for EBI2 assay utilizing the enzyme, b-galactosidase.; assay type: functional
[2] = biological target: T1, Methionyl-tRNA synthetase, putative (Trypanosoma brucei brucei, UniProt Q38C91); assay type: functional, Trypanosoma brucei brucei strain 927/4 GUTat10.1
T1 sequence (Q38C91 whole entry): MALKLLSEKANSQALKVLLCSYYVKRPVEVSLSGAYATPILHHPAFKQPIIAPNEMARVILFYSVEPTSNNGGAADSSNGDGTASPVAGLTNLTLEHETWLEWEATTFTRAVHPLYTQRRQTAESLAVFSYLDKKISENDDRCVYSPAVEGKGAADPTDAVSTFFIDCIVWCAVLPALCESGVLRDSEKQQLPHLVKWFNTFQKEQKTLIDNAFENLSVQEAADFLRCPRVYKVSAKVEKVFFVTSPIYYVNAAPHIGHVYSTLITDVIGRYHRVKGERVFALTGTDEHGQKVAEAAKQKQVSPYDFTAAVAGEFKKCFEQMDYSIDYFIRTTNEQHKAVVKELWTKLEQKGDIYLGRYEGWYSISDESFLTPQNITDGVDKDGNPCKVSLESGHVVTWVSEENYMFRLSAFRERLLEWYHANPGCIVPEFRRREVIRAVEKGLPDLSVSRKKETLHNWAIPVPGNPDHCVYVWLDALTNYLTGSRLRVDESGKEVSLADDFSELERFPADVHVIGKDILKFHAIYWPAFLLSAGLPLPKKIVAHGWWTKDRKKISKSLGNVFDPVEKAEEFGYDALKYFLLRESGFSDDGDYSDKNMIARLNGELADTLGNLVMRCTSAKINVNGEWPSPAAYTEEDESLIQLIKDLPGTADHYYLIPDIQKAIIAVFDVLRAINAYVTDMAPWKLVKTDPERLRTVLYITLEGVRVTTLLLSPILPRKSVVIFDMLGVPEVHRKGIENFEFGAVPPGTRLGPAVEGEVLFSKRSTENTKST

[3] = Counterscreen for inhibitors of Trypanosoma brucei methionyl tRNA synthetase (MetRS): Luminescence-based cell-based high throughput dose response assay to identify compounds that are cytotoxic to Jurkat human T lymphocyte cells.; assay type: functional
[4] = biological target: T1, Methionyl-tRNA synthetase, putative; assay type: functional, Trypanosoma brucei brucei strain 927/4 GUTat10.1; remark: listed apart in the source
[5] = biological target: Paired box protein Pax-8 (Homo sapiens, UniProt Q06710); assay: inhibitors of PAX8-driven TPO luciferase reporter, dose response, RMG-I cells, cherry-pick (AID 687027); assay type: functional, cell-based;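 further: luciferase reporter driven by Pax8 target thyroperoxidase promoter measured by SteadyGlo luminescence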
[6] = A549 cell cytotoxicity, dose response, cytotoxicity control, plate reader, cherry-pick, antagonist series (AID 743412); assay type: functional, cell-based
[7] = HepG2 cell cytotoxicity, dose response, cytotoxicity control, plate reader, cherry-pick, antagonist series (AID 743416); assay type: functional, cell-based
[8] = LGR2 antagonists, dose response, cell-based, HEK293, CRE-luciferase reporter, cherry pick, set 2 (AID 743343); assay type: functional;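 further: transfected cells were stimulated with diluted bursicon conditioned medium after compound addition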
[9] = non-specific cell cytotoxicity, dose response, cytotoxicity control for PAX8 inhibitor project, plate reader, dry powder samples (AID 743021); assay type: functional, cell-based
[10] = MC4R antagonists, dose response, counter-screen for LGR2 antagonist project, cell-based, plate reader, cherry pick (AID 743444); assay type: functional;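 further: transfected HEK 293 cells stimulated with alpha-MSH peptide; potency of inhibitors of the alpha-MSH evoked signal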
[11] = HEK293 cell cytotoxicity, dose response, cytotoxicity control, plate reader, cherry-picked samples (AID 743446); assay type: functional, cell-based
[12] = miR-122 activators in hepatoma reporter cells, dose response, cell-based, Huh7 psiCHECK-miR122, Renilla luciferase, cherry-picked (AID 651956); assay type: functional;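 further: huh7 hepatoma cells stably carrying a psiCHECK-2 miR-122 sensor plasmid; renilla luciferase signal reporting endogenous miR-122 activity after 48 h compound exposure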
[13] = HEK293T cytotoxicity, dose response, cytotoxicity control for miR-122 modulator project, cell-based, activator set, cherry-pick (AID 720690); assay type: functional;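 further: HEK293T human cells scored for general mammalian cytotoxicity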
[14] = inhibitors of HIV Env-driven cell fusion, dose response, cherry-pick (AID 652057); assay type: functional, cell-based
[15] = CEM21 lymphoblast cell cytotoxicity, dose response, cytotoxicity control for viral fusion inhibitor project, CellTiter-Glo luminescence, cherry-picked (AID 652042); assay type: functional, cell-based;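 further: potency for signal decrease meaning cytotoxicity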
[16] = ZM109 Env clade C HIV-1 fusion inhibitors, dose response, HeLa effector, CEM target cells, luciferase, cherry-pick (AID 652058); assay type: functional, cell-based
[17] = off-target signal loss in HeLa-CEM21 co-culture – HeLa F-luc CTL cells, cherry-picked, counter-screen for HIV-1 Env fusion inhibitor project, dose response (AID 652040); assay type: functional, cell-based;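 further: potency for signal decrease marking cytotoxic or nonspecific inhibition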
[18] = inhibitors of clade B AD8 Env fusion, dose response, cell-based, cherry-pick (AID 652062); assay type: functional;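 further: luciferase signal from cell-cell fusion driven by HIV-1 clade B AD8 Env; potency is for inhibitors of fusion seen as a drop in luminescence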
[19] = HeLa cell cytotoxicity, dose response, cytotoxicity control for MgcRacGAP inhibitor project (AID 624300); assay type: functional
[20] = biological target: T2, Rac GTPase-activating protein 1 (Homo sapiens, UniProt Q9H0H5); assay: MgcRacGAP GTPase-activating activity inhibitors, confirmation, biochemical, ADP Hunter fluorescence, primary and confirmatory (AID 624330); assay type: functional
T2 sequence (Q9H0H5 whole entry): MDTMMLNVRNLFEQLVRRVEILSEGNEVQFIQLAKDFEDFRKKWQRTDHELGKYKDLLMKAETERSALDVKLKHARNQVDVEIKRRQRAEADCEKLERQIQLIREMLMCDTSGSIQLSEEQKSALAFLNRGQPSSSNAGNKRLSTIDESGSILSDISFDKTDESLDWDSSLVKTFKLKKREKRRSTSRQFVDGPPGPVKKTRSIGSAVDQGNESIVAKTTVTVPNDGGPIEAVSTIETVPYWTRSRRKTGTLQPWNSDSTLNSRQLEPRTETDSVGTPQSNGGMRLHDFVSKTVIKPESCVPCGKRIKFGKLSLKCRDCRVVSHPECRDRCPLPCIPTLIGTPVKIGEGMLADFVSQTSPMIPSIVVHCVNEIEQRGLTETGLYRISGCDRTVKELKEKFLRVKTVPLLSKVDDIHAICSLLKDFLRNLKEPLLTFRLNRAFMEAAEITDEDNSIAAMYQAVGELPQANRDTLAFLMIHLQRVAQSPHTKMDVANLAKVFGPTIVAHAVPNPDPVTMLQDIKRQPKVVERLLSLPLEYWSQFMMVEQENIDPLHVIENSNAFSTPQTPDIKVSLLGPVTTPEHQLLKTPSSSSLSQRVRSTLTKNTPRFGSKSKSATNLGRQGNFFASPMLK

[21] = test system: Vero; assay: Vero cell toxicity, dose response, cytotoxicity control, plate reader, cherry-pick samples (AID 687020); assay type: functional, cell-based; settings: Chlorocebus sabaeus
[22] = test system: A549; assay: A549 cell toxicity, dose response, cytotoxicity control, plate reader, cherry-pick samples (AID 687028); assay type: functional, cell-based; settings: Homo sapiens
[23] = HepG2 cell cytotoxicity, dose response, cytotoxicity control, ATP luminescence, cherry-pick, activator set 2 (AID 1053143); assay type: functional, cell-based
[24] = cells; assay type: functional, cell-based
[25] = biological target: Nuclear receptor subfamily 0 group B member 1 (Homo sapiens, UniProt P51843); assay type: functional, cell-based;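 further: HEK293T cells transfected with SF-1 and DAX-1 plus StAR promoter luciferase reporter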
[26] = biological target: T3, Histone-lysine N-methyltransferase NSD2 (Homo sapiens, UniProt O96028); assay type: biochemical
T3 sequence (O96028 whole entry): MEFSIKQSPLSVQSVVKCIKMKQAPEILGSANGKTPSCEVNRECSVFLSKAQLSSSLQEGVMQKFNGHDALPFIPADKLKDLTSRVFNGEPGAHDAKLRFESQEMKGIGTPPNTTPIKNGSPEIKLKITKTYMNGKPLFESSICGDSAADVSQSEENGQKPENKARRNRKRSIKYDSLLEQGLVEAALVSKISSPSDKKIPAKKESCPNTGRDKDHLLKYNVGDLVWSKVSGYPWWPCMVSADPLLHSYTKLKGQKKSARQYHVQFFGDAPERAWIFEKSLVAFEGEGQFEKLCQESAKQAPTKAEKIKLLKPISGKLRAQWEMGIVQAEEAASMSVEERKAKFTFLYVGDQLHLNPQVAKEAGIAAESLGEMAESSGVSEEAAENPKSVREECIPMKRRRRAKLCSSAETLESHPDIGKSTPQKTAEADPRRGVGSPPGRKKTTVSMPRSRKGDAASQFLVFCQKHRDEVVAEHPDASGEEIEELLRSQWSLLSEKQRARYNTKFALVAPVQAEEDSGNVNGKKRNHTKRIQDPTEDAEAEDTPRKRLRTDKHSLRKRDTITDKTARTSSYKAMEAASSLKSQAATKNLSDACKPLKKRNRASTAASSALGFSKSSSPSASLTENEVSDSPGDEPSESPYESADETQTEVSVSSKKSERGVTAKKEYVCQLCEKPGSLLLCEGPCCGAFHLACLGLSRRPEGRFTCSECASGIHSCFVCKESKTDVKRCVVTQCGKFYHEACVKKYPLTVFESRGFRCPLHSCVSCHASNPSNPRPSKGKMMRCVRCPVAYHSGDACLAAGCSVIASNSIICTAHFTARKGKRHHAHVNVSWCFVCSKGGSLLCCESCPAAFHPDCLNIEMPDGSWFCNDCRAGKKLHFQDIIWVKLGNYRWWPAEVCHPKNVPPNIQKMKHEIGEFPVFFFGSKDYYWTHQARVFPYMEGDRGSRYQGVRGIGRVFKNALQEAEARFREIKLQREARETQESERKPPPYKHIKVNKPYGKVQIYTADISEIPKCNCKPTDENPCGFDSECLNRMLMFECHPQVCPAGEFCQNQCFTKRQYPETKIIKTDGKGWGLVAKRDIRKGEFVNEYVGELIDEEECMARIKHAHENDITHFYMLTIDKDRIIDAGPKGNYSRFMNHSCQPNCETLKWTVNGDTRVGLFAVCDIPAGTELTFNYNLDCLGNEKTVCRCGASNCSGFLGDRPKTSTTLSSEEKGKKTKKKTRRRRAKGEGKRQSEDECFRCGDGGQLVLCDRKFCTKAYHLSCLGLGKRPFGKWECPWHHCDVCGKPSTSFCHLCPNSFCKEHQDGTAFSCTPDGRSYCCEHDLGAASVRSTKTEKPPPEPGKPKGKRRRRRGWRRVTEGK

[27] = NIH:OVCAR-3 ovarian cancer cell cytotoxicity, dose response, PAX8 inhibitor project, plate reader, dry powder samples (AID 743044); assay type: functional, cell-based
[28] = IGROV1 ovarian cancer cell cytotoxicity, dose response, PAX8 inhibitor project, plate reader, dry powder samples (AID 743043); assay type: functional, cell-based; settings: IGROV-1
[29] = cytotoxicity in OVCAR8 ovarian cancer cells, dose response, PAX8 project, cell-based, plate reader, dry powder samples (AID 743197); assay type: functional; settings: OVCAR-8

Sequence of Nuclear receptor subfamily 0 group B member 1 (P51843 whole entry): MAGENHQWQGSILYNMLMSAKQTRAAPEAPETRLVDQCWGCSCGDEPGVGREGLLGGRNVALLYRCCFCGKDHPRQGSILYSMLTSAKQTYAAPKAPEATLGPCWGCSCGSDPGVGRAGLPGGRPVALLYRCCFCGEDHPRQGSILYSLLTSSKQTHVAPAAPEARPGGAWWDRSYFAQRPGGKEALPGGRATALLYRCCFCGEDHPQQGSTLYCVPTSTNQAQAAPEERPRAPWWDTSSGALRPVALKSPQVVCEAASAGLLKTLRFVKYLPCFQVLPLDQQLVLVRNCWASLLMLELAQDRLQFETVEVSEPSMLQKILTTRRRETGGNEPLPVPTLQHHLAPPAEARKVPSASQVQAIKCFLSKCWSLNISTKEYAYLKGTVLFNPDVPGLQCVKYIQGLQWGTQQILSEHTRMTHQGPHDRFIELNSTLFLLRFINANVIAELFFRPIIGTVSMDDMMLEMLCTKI
Sequence of Paired box protein Pax-8 (Q06710 whole entry): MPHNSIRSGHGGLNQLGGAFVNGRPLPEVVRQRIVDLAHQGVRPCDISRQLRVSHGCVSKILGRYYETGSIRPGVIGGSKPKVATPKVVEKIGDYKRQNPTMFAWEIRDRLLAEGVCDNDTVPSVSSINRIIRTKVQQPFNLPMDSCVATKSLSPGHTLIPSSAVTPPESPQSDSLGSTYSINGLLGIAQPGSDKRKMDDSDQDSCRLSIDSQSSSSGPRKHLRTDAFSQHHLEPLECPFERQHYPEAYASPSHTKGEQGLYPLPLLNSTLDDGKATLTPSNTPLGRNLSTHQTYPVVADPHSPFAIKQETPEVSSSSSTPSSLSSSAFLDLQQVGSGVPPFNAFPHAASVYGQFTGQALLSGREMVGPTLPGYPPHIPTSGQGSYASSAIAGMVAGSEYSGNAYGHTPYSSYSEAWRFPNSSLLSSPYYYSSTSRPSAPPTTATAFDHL
Sequence of Beta-galactosidase (Q8VNN2 whole entry): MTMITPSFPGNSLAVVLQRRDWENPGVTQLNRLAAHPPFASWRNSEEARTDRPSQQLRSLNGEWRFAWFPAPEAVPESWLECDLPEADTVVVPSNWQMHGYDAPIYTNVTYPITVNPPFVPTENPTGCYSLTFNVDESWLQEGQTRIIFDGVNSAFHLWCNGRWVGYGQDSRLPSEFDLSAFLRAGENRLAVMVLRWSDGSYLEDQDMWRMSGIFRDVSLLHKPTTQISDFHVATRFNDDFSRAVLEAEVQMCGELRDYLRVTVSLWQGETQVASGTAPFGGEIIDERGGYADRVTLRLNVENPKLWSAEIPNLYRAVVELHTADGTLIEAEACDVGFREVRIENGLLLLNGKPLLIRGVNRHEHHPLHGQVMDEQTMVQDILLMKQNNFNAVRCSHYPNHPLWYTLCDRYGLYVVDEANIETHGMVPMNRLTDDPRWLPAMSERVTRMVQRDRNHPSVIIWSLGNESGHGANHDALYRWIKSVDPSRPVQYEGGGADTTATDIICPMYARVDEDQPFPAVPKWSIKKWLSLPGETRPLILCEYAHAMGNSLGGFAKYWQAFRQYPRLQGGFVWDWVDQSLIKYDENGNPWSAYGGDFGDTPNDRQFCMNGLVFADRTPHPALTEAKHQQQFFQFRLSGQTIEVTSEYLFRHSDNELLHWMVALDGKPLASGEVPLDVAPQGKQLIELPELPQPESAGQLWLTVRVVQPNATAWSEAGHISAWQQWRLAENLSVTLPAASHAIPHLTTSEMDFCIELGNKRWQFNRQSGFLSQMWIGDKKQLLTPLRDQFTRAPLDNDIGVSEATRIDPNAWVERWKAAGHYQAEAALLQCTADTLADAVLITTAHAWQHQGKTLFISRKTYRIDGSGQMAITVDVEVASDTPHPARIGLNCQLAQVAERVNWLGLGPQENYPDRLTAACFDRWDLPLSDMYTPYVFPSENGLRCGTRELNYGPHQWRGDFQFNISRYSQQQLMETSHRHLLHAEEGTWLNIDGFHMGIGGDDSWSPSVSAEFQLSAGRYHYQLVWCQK

O=C(COc1ccc(Cl)cc1)N1CCN(C/C=C/c2ccccc2)CC1
IC50 [1]: > 80 µM (inactive)

CCN1C(=O)C(CC(=O)Nc2ccc(F)cc2)N(CCc2ccc(OC)cc2)C1=S (centres undefined)
IC50 [2]: 13.2 µM (inactive) | IC50 [3]: 83.3 µM (inactive) | IC50 [4]: 10.5 µM (inactive)

Oc1nc2ccccc2n1C1CCN(C(CCc2ccccc2)c2nnnn2-c2ccc3c(c2)OCCO3)CC1 (centres undefined)
AC50 [5]: 1.54 µM (active) | AC50 [6]: 7.65 µM (active) | AC50 [7]: 16.5 µM (active) | AC50 [8]: 9.66 µM (active) | AC50 [9]: 10.8 µM (active) | AC50 [10]: 2.86 µM (active) | AC50 [11]: 14.5 µM (active)

COc1cccc(-c2c[nH]c(C(O)c3cc(Cl)cc(Cl)c3)n2)c1 (centres undefined)
IC50 [2]: 10.3 µM (inactive) | IC50 [3]: 83.3 µM (inactive) | IC50 [4]: 4.9 µM (active)

COc1ccccc1NC(=O)N1CCCCN2[C@H](CO)[C@H](c3ccc(C#CC4CCCC4)cc3)[C@H]2C1
AC50 [12]: 21.9 µM (active) | AC50 [13]: 12.6 µM (active)

S=C(NCCc1ccccc1)N1Cc2cc(N3CCCCC3)ccc2-n2nncc2C1
AC50 [14]: 5.34 µM (active) | AC50 [15]: 60.7 µM (active) | AC50 [16]: 9.8 µM (active) | AC50 [17]: 7.92 µM (active) | AC50 [18]: 9.73 µM (active)

CCOc1ccc(/C=N/NC(=O)NC23CC4CC(CC(C4)C2)C3)cc1O
CC50 [19]: 100 µM (active) | IC50 [20]: 148 µM (active)

CCC1CN(S(=O)(=O)c2ccc3c(c2)NC(=O)CC(=O)N3)c2cc(Cl)ccc2O1 (centres undefined)
AC50 [21]: 27.7 µM (active) | AC50 [22]: 28.5 µM (active)

CN(C)C(=O)c1ccc(-c2cc3onc(-c4ccccc4)c3c(=O)n2C)cc1
AC50 [23]: 26 µM (active)

Cc1ccccc1-c1nnc2n1N=C(c1ccc(O)c(O)c1)CS2
IC50 [24]: > 67.6 µM (inactive) | IC50 [25]: > 67.6 µM (inactive) | AC50 [26]: > 20 µM (inactive)

O/N=C/c1ccn(-c2ccc(Br)cc2)c1
IC50 [24]: > 67.5 µM (inactive) | IC50 [25]: > 67.5 µM (inactive)

CC1CCCN(CCOc2cccc(Oc3ccccc3)c2)C1 (centres undefined)
AC50 [21]: 2.31 µM (active) | AC50 [22]: 1.65 µM (active)

O=C(c1ccc(F)cc1)N1CC(=O)N2[C@@H](CO)[C@@H](c3ccc(C#Cc4ccc(F)cc4)cc3)[C@@H]2C1
AC50 [5]: 9.4 µM (active) | AC50 [27]: 7.81 µM (active) | AC50 [28]: 23 µM (active) | AC50 [9]: 2.16 µM (active) | AC50 [29]: > 70 µM (inactive)

CN1CCN(Cc2cc(Cl)c3cccnc3c2OC(=O)c2cccs2)CC1
AC50 [23]: 26 µM (active)
